What was measured:
rabbits [1] = experiment: Blood glucose in rabbits after i.v. injection before glucose challenge; type: in vivo, rabbit
Protocol: FIG. 11 depicts blood glucose levels when a standard regular insulin (0.2 ml of 3.1 IU/ml) or an extraction of the pro-micelle (1.5 ml. of 0.4 IU/ml) was intravenously (i.v.) injected into rabbits one minute before a glucose challenge of 250 mg/kg. […] With the formulation of the invention, a hypoglycemic effect was noticed within 35 minutes, and lasted for the duration of the experiment of 120 minutes or more.

rabbits [2] = experiment: Blood glucose in rabbits after i.p. administration before glucose challenge; type: in vivo, rabbit; details: i.p. 15 minutes before glucose challenge of 250 mg/kg, FIG. 10
Protocol: FIG. 10 depicts blood glucose when a standard regular insulin solution (0.3 ml of 3.1 IU/ml) or an extraction of the pro-micelle (2.5 ml of 0.4 IU/ml) was administered intraperitonally (i.p.) to rabbits 15 minutes before a glucose challenge of 250 mg/kg.

Substance: standard regular insulin: Standard regular insulin solution, 3.1 IU/ml, comparator
- duration of hypoglycemic effect (rabbits [1]; i.v.): short in duration
- blood glucose course after i.v. injection (rabbits [1]; i.v. one minute before glucose challenge of 250 mg/kg, FIG. 11): rapidly decreased from 20 to 45 minutes
- blood glucose relative to control level within 90 minutes of injection (rabbits [1]; i.v., within 90 minutes of the insulin injection): 10-30 % of the control level
- effect on blood sugar after i.p. injection (rabbits [2]): decreased blood sugar
